Measurements: PubChem BioAssay (NCI)
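Each compound was tested at five concentrations against cells in 96-well plates for 48 hours. Abbreviation: GI50, concentration required for 50% inhibition of growth. TGI denotes the concentration required for complete inhibition of growth.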

Test system: MDA-MB-468 breast
Assay: inhibition of tumour cell growth, NCI panel, 48 h

Compound	GI50 [nM]	TGI [nM]
O=C1C(Cl)=C(NCCN2CCOCC2)C(=O)c2ncccc21	1410	2910
COc1ccc(-c2onc(N)c2-c2cc(OC)c3c(c2)OCO3)cc1	644	3150
Cc1ccc(C(=O)NC(C)C)cc1-c1ccc(C(=O)NCC2CC2)cc1	> 25000	> 25000
O=C(O)/C=C(\c1nc2ccc([N+](=O)[O-])cc2[nH]1)c1cc(Cl)ccc1O	2090	9960
CCOCC(=O)N[C@H]1CCc2cc(OC)c(OC)c(OC)c2-c2ccc(OC)c(=O)cc21	< 10	> 100000
Cc1ccc(-c2nc3nc(-c4ccccc4)nc(N4CCCNCC4)c3o2)cc1	1590	3350
COc1ccc(-c2cnc(NC(=O)CCCCCCNC(=O)C(O)(O)C(F)(F)F)s2)cc1	877	5560
Nc1nc2c(nnn2C2CC(O)C(CO)O2)c(=O)[nH]1 (centres undefined)	825	7200
O=C(Nc1ccc(-c2nc(N3CCOCC3)c3cccn3n2)cc1)Nc1cccnc1	69.2	570
COC(=O)Nc1nc2ccc(Oc3ccc(NC(=O)Nc4cc(C(F)(F)F)ccc4F)cc3)cc2s1	9110	> 25000
CCN(CC)CCCC(C)Nc1c2ccc(Cl)cc2nc2ccc(O)cc12 (centres undefined)	1310	2910
NC(=O)NS(=O)(=O)c1ccc(N2N=C(C(F)(F)F)CC2c2cc(C(F)(F)F)cc(C(F)(F)F)c2)cc1 (centres undefined)	2700	10900
C#C[C@]1(O)CC[C@H]2[C@@H]3CC=C4c5sc(Nc6ncccc6C)nc5CC[C@]4(C)[C@H]3CC[C@@]21C	1250	3230
CNC(=O)c1cc(-c2ccc(NC(=O)Nc3ccc(N4CCN(C)CC4)c(C(F)(F)F)c3)cc2)nc2cccnc12	14800	32900
CC/C=C\C[C@@H](O)C/C=C1/C(=O)C=C[C@H]1C/C=C\CCCC(=O)OC	2120	4790
O=C(O)CCNC1CCCCC1	> 100000	> 100000
O=C(CCc1nnc2sc(-c3ccc(Cl)cc3Cl)nn12)c1nc2ccccc2[nH]1	466	1490
CC1(C)OC2=C(CC1Br)C(=O)C(=O)c1ccccc12 (centres undefined)	1450	2820
C=C(C[C@](O)(C(=O)/C=C/c1ccc(Cl)cc1)C(=O)OC)c1ccccc1	3760	13700
CN(C)CCCOc1ccc(C(=C(c2ccccc2)C2CCCC2)c2ccc(OCCCN(C)C)cc2)cc1	1710	3970
CS(=O)(=O)CCNCc1ccc(-c2ccc3ncnc(Nc4ccc(OCc5ccccc5)cc4)c3c2)o1	146	1620

Compound	GI50 [nM]	TGI [nM]
O=C(Nc1ccncc1)C(=O)c1cn(S(=O)(=O)c2cccc(F)c2)c2ccccc12	1260	8380
CC/C=C\C[C@H](F)C/C=C1/C(=O)C=C[C@@H]1C/C=C\CCCC(=O)O	3850	11500
C[N+]1=C(/C=C/c2ccc(O)c3ncccc23)C(C)(C)c2ccccc21	3050	10600
COc1ccc2c(c1)CCCN2c1c2ccccc2nc2ccccc12	386	> 100000
Cc1ccc2c(c1)Sc1c(ccc3ccccc13)N2	56200	> 100000
CCCCCCCC[C@@H](O)CC(=O)N[C@@H](CC(N)=O)C(=O)N[C@@H](CCC(N)=O)C(=O)N[C@@H](CC(=O)c1cc(C)cc(O)c1C(=O)c1c(O)cccc1O)CC(C)C	401	3140
C#CCNC(=O)c1cccc2c1cc(C)n2-c1nc2c(c(NCc3ccccc3)n1)CCCC2	21.3	54.6
Cc1ccc(C(=O)N(CCCN)C(c2oc3cc(Cl)ccc3c(=O)c2Cc2ccccc2)C(C)C)cc1 (centres undefined)	< 10	904
CCCC(=O)OCC1OC(n2cnc3c(=S)nc[nH]c32)C(OC(=O)CCC)C1OC(=O)CCC (centres undefined)	802	45000
COc1ccc(-c2nc(-c3nc4ccc(Cl)cc4[nH]3)c3ccccn23)cc1	1990	6760
CC(C)(O)c1cncc(-c2ccc3ncnc(N4CCc5cc(F)c(Cl)cc54)c3c2)c1	567	3500
Cc1cc(-c2cnn3c(NCC4CC(C)(O)C4)cc(Oc4cccnc4)nc23)ccc1C(=O)NC1CC1 (centres undefined)	2080	> 100000
COc1ccc(CNS(=O)(=O)/N=C2\NC(=O)NC2=C(Cl)Cl)cc1	180	650
CCCCCCCCn1ccc2cc(NC(=O)Cn3cc(CN4CCCC4)nn3)ccc21	1630	3170
Nc1nc(N(Cc2ccccc2)c2ccccc2)c2cn[nH]c2n1	1960	6330
O=C1Nc2ccccc2C1(c1ccc(O)cc1)c1ccc(O)cc1	227	14100
COc1cc2ncn(-c3cc(OCc4cccs4)c(C(N)=O)s3)c2cc1OC	654	6410
CCCn1c(=S)sc2c1nc(C)n1c(Nc3ccccc3)nnc21	2030	13000
Nc1nccc(-c2c(-c3ccc(F)cc3)ncn2C2CCC(O)CC2)n1 (centres undefined)	822	6360
COc1cc[nH]c1/C=C1\C(=O)Nc2ccc(F)c(C#CC3(O)CCNCC3)c21	123	600
COc1cc2cc(Oc3ccc(NC(=O)Nc4ccc(Cl)c(C(F)(F)F)c4)cc3)c(C)nc2cc1OCCN1CCOCC1	474	2060
